# Target: T1, CRTH2 (Homo sapiens, UniProt Q9Y5Y4)
# T1 construct: expressed in transfected cells; host or cells: Chinese Hamster Ovary (CHO) cells, G418 selected
# T1 sequence (Q9Y5Y4 1-395): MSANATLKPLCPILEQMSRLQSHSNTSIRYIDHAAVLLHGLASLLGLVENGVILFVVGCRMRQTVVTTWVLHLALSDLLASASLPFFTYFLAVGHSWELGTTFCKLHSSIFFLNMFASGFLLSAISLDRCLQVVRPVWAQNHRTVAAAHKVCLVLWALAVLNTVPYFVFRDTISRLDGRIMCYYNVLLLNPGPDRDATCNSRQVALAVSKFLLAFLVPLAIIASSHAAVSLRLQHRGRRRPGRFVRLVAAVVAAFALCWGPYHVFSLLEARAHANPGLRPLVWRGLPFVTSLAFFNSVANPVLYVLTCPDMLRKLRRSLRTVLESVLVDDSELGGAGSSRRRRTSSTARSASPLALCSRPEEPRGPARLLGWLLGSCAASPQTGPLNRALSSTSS
# Test: Calcium mobilisation assay in CHO/CRTH2 cells (PGD2-induced calcium flux)
# Type: cell-based
# Conditions: agonist, n=3, read-out: EC50 for increase in intracellular Ca2+ mobilisation
# Procedure: (§1) Chinese Hamster Ovary cells were transfected with CRTH2 or DP receptors (CHO/CRTH2 and CHO/DP) and were maintained in culture in a humidified atmosphere at 37° C. (5% CO2) in Minimum Essential Medium (MEM) supplemented with 10% foetal bovine serum, 2 mM glutamine, and 1 mg ml^−1 active G418. The cells were passaged every 2-3 days. For radioligand binding assay, cells were prepared in triple-layer flasks or in 175 cm^2 square flasks (for membrane preparation). For calcium mobilisation assay, cells were grown in a 96 well plate 24 h prior to the assay at a density of 80,000 cells per well.
# Cells were seeded onto poly-D-lysine coated 96-well plates at a density of 80,000 cells per well and incubated at 37° C. overnight to allow the cells to adhere. Cells were washed twice with HBSS and incubated for 1 h at 37° C. in 100 μl HBSS and 100 μl calcium-3-dye (Molecular Devices) solution, supplemented with 4 mM probenecid. Changes in fluorescence were monitored over a 50 s time course with agonist addition at 17s using a Flexstation (Molecular Devices).
row,Structure (SMILES),EC50 [nM]
1,"CCCCC[C@H](O)/C=C/[C@H]1C(=O)C[C@H](O)[C@@H]1C/C=C\CCCC(=O)O [PGD2, prostaglandin D2, reference compound]",2.4

# Same assay, conditions: inhibition of PGD2-induced calcium flux, read-out: CRTH2 Ca flux IC50
row,Structure (SMILES),IC50 [nM]
1,"CCCCS(=O)(=O)c1c(C)n(CC(=O)O)c2ccc(F)cc12 [Compound 1, [3-(Butane-1-sulfonyl)-5-fluoro-2-methyl-indol-1-yl]-acetic acid]",280
2,Cc1c(S(=O)(=O)c2ccc(-c3ccccc3)cc2)c2cc(F)ccc2n1CC(=O)O [Compound 2],163
3,"Cc1c(S(=O)(=O)CCS(C)(=O)=O)c2cc(F)ccc2n1CC(=O)O [Compound 5, [5-Fluoro-3-(2-methanesulfonyl-ethanesulfonyl)-2-methyl-indol-1-yl]-acetic acid]",268
4,"Cc1c(S(=O)(=O)c2nc3ccccc3s2)c2cc(F)ccc2n1CC(=O)O [Compound 6, [3-(Benzothiazole-2-sulfonyl)-5-fluoro-2-methyl-indol-1-yl]-acetic acid]",345
5,"Cc1c([S+]([O-])c2nc3ccccc3s2)c2cc(F)ccc2n1CC(=O)O (stereo not shown) [Compound 7, [3-(Benzothiazole-2-sulfinyl)-5-fluoro-2-methyl-indol-1-yl]-acetic acid]",163
6,"Cc1c(S(=O)(=O)c2ccc3ccccc3n2)c2cc(F)ccc2n1CC(=O)O [Compound 8, [5-Fluoro-2-methyl-3-(quinoline-2-sulfonyl)-indol-1-yl]-acetic acid]",330
7,"Cc1c(S(=O)(=O)Cc2ccccc2)c2cc(F)ccc2n1CC(=O)O [Compound 10, (5-Fluoro-2-methyl-3-phenylmethanesulfonyl-1H-indol-1-yl)-acetic acid]",79
8,"Cc1c(S(=O)(=O)Nc2ccc(Cl)cc2)c2cc(F)ccc2n1CC(=O)O [Compound 11, [3-(4-Chloro-phenylsulfamoyl)-5-fluoro-2-methyl-indol-1-yl]-acetic acid]",197
9,"Cc1c(S(=O)(=O)Nc2ccc(F)cc2)c2cc(F)ccc2n1CC(=O)O [Compound 13, [3-(4-Fluoro-phenylsulfamoyl)-5-fluoro-2-methyl-indol-1-yl]-acetic acid]",1650
10,"Cc1c(S(=O)(=O)Nc2ccccc2Cl)c2cc(F)ccc2n1CC(=O)O [Compound 14, [3-(2-Chloro-phenylsulfamoyl)-5-fluoro-2-methyl-indol-1-yl]-acetic acid]",390

# Target: T1, CRTH2
# Test: [3H]PGD2 radioligand binding on CHO/CRTH2 cell membranes
# Conditions: competition versus [3H]PGD2, CHO/CRTH2 membranes
# Procedure: as §1
# (§2) Membranes were prepared either from CHO/CRTH2 and CHO/DP cells, or from platelets (as a source of TP receptors). CHO cells grown to confluency were washed with PBS and detached using a Versene solution (15 ml per flask). When the cells were grown in 175 cm^2 square flask, they were collected by scrapping in PBS. The cell suspensions were centrifuged (1,700 rpm, 10 min, 4° C.) and resuspended in 15 ml of buffer (1×HBSS, supplemented with 10 mM HEPES, pH 7.3). Cell suspensions were then homogenised using an Ultra Turrax at setting 4-6 for 20 s. The homogenate was centrifuged at 1,700 rpm for 10 min and the supernatant was collected and centrifuged at 20,000 rpm for 1 h at 4° C. The resulting pellet was resuspended in buffer and stored at −80° C. in aliquots of 200-500 μl. The protein concentration was determined by the method of Bradford (1976), using bovine serum albumin as standard. The platelets were washed by centrifugation at 600×g for 10 min and resuspended in ice-cold assay buffer (10 mM Tris-HCl, pH 7.4, 5 mM Glucose, 120 mM NaCl, 10 μM indomethacin) and directly centrifuged at 20,000 rpm for 30 min at 4° C. The resulting pellet was treated as described above.
# (§3) [3H]PGD2 (160 Ci/mmol) binding experiments were performed on membranes prepared as described above. Assays were performed in a final volume of 100 μl of buffer (1×HBSS/HEPES 10 mM, pH 7.3). Cell membranes (15 μg). Cell membranes […] were preincubated at room temperature with varying concentration of competing ligand for 15 min. [3H]PGD2 ([…]) was then added and the incubation continued for a further one hour at room temperature. The reaction was terminated by the addition of 200 μl ice-cold assay buffer to each well, followed by rapid filtration through Whatman GF/B glass fibre filters using a Unifilter Cell harvester (PerkinElmer Life Sciences) and six washes of 300 μl of ice-cold buffer. The Unifilter plates were dried at room temperature for at least 1 h and the radioactivity retained on the filters was determined on a Beta Trilux counter (PerkinElmer Life Sciences), following addition of 40 μl of Optiphase Hi-Safe 3 (Wallac) liquid scintillation. Non specific binding was defined in the presence of […] unlabelled PGD2. Assays were performed in duplicate.
row,Structure (SMILES),Ki [nM]
1,"CCCCS(=O)(=O)c1c(C)n(CC(=O)O)c2ccc(F)cc12 [Compound 1, [3-(Butane-1-sulfonyl)-5-fluoro-2-methyl-indol-1-yl]-acetic acid]",192
2,Cc1c(S(=O)(=O)c2ccc(-c3ccccc3)cc2)c2cc(F)ccc2n1CC(=O)O [Compound 2],75
3,"Cc1c(S(=O)(=O)CC(=O)O)c2cc(F)ccc2n1CC(=O)O [Compound 3, (3-Carboxymethanesulfonyl-5-fluoro-2-methyl-indol-1-yl)-acetic acid]",2000
4,"Cc1c(S(=O)(=O)CC(N)=O)c2cc(F)ccc2n1CC(=O)O [Compound 4, (3-Carbamoylmethanesulfonyl-5-fluoro-2-methyl-indol-1-yl)-acetic acid]",2300
5,"Cc1c(S(=O)(=O)CCS(C)(=O)=O)c2cc(F)ccc2n1CC(=O)O [Compound 5, [5-Fluoro-3-(2-methanesulfonyl-ethanesulfonyl)-2-methyl-indol-1-yl]-acetic acid]",89
6,"Cc1c(S(=O)(=O)c2nc3ccccc3s2)c2cc(F)ccc2n1CC(=O)O [Compound 6, [3-(Benzothiazole-2-sulfonyl)-5-fluoro-2-methyl-indol-1-yl]-acetic acid]",209
7,"Cc1c([S+]([O-])c2nc3ccccc3s2)c2cc(F)ccc2n1CC(=O)O (stereo not shown) [Compound 7, [3-(Benzothiazole-2-sulfinyl)-5-fluoro-2-methyl-indol-1-yl]-acetic acid]",54
8,"Cc1c(S(=O)(=O)c2ccc3ccccc3n2)c2cc(F)ccc2n1CC(=O)O [Compound 8, [5-Fluoro-2-methyl-3-(quinoline-2-sulfonyl)-indol-1-yl]-acetic acid]",249
9,"Cc1c(S(=O)(=O)c2cccc3cccnc23)c2cc(F)ccc2n1CC(=O)O [Compound 9, [5-Fluoro-2-methyl-3-(quinolin-8-ylsulfonyl)-indol-1-yl]-acetic acid]",254
10,"Cc1c(S(=O)(=O)Cc2ccccc2)c2cc(F)ccc2n1CC(=O)O [Compound 10, (5-Fluoro-2-methyl-3-phenylmethanesulfonyl-1H-indol-1-yl)-acetic acid]",6
11,"Cc1c(S(=O)(=O)Nc2ccc(Cl)cc2)c2cc(F)ccc2n1CC(=O)O [Compound 11, [3-(4-Chloro-phenylsulfamoyl)-5-fluoro-2-methyl-indol-1-yl]-acetic acid]",51
12,"Cc1c(S(=O)(=O)Nc2ccc(F)cc2)c2cc(F)ccc2n1CC(=O)O [Compound 13, [3-(4-Fluoro-phenylsulfamoyl)-5-fluoro-2-methyl-indol-1-yl]-acetic acid]",182
13,"Cc1c(S(=O)(=O)Nc2ccccc2Cl)c2cc(F)ccc2n1CC(=O)O [Compound 14, [3-(2-Chloro-phenylsulfamoyl)-5-fluoro-2-methyl-indol-1-yl]-acetic acid]",225
14,"Cc1c(S(=O)(=O)NCc2ccccc2)c2cc(F)ccc2n1CC(=O)O [Compound 15, (3-Benzylsulfamoyl-5-fluoro-2-methyl-indol-1-yl)-acetic acid]",278
15,"COc1ccccc1NS(=O)(=O)c1c(C)n(CC(=O)O)c2ccc(F)cc12 [Compound 16, [5-Fluoro-3-(2-methoxy-phenylsulfamoyl)-2-methyl-indol-1-yl]-acetic acid]",771
16,"COc1ccc(NS(=O)(=O)c2c(C)n(CC(=O)O)c3ccc(F)cc23)cc1 [Compound 17, [5-Fluoro-3-(4-methoxy-phenylsulfamoyl)-2-methyl-indol-1-yl]-acetic acid]",1450
17,"Cc1c(S(=O)(=O)Nc2ccccc2)c2cc(F)ccc2n1CC(=O)O [Compound 18, (5-Fluoro-2-methyl-3-phenylsulfamoyl-indol-1-yl)-acetic acid]",236
18,"Cc1c(S(=O)(=O)NCc2ccc(Cl)c(Cl)c2)c2cc(F)ccc2n1CC(=O)O [Compound 19, [3-(3,4-Dichloro-benzylsulfamoyl)-5-fluoro-2-methyl-indol-1-yl]-acetic acid]",181
19,"COc1cccc(NS(=O)(=O)c2c(C)n(CC(=O)O)c3ccc(F)cc23)c1 [Compound 20, [5-Fluoro-3-(3-methoxy-phenylsulfamoyl)-2-methyl-indol-1-yl]-acetic acid]",531
20,"Cc1ccc(NS(=O)(=O)c2c(C)n(CC(=O)O)c3ccc(F)cc23)cc1 [Compound 22, (5-Fluoro-2-methyl-3-p-tolylsulfamoyl-indol-1-yl)-acetic acid]",1240
21,"Cc1c(S(=O)(=O)NCc2ccc(Cl)cc2)c2cc(F)ccc2n1CC(=O)O [Compound 23, [3-(4-Chloro-benzylsulfamoyl)-5-fluoro-2-methyl-indol-1-yl]-acetic acid]",164
22,"Cc1c(S(=O)(=O)N(C)Cc2ccccc2)c2cc(F)ccc2n1CC(=O)O [Compound 24, [3-(Benzyl-methyl-sulfamoyl)-5-fluoro-2-methyl-indol-1-yl]-acetic acid]",119
23,"Cc1c(S(=O)(=O)Nc2cccnc2)c2cc(F)ccc2n1CC(=O)O [Compound 25, [5-Fluoro-2-methyl-3-(pyridin-3-ylsulfamoyl)-indol-1-yl]-acetic acid]",4250

# Target: T2, DP receptor (Homo sapiens, UniProt Q13258)
# T2 construct: expressed in transfected cells; host or cells: Chinese Hamster Ovary (CHO) cells, G418 selected
# T2 sequence (Q13258 1-359): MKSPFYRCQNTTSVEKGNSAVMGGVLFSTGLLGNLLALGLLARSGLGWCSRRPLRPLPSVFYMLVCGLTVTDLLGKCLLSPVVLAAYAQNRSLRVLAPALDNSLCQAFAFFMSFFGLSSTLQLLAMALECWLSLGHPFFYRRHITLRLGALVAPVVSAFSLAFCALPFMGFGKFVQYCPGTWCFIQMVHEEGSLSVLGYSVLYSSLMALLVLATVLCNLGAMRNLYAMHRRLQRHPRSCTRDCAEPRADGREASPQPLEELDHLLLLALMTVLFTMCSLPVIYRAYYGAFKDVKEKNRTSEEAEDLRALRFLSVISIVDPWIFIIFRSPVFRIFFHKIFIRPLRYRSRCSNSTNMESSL
# Test: [3H]PGD2 radioligand binding on CHO/DP cell membranes
# Conditions: competition versus [3H]PGD2, CHO/DP membranes
# Procedure: as §1, §2, §3
row,Structure (SMILES),Ki [nM]
1,"CCCCS(=O)(=O)c1c(C)n(CC(=O)O)c2ccc(F)cc12 [Compound 1, [3-(Butane-1-sulfonyl)-5-fluoro-2-methyl-indol-1-yl]-acetic acid]",> 10000
2,Cc1c(S(=O)(=O)c2ccc(-c3ccccc3)cc2)c2cc(F)ccc2n1CC(=O)O [Compound 2],> 10000
3,"Cc1c(S(=O)(=O)CCS(C)(=O)=O)c2cc(F)ccc2n1CC(=O)O [Compound 5, [5-Fluoro-3-(2-methanesulfonyl-ethanesulfonyl)-2-methyl-indol-1-yl]-acetic acid]",> 10000
4,"Cc1c(S(=O)(=O)c2cccc3cccnc23)c2cc(F)ccc2n1CC(=O)O [Compound 9, [5-Fluoro-2-methyl-3-(quinolin-8-ylsulfonyl)-indol-1-yl]-acetic acid]",> 10000
5,"Cc1c(S(=O)(=O)Nc2ccc(Cl)cc2)c2cc(F)ccc2n1CC(=O)O [Compound 11, [3-(4-Chloro-phenylsulfamoyl)-5-fluoro-2-methyl-indol-1-yl]-acetic acid]",> 10000
6,"Cc1c(S(=O)(=O)NCc2ccccc2)c2cc(F)ccc2n1CC(=O)O [Compound 15, (3-Benzylsulfamoyl-5-fluoro-2-methyl-indol-1-yl)-acetic acid]",> 10000
7,"COc1ccccc1NS(=O)(=O)c1c(C)n(CC(=O)O)c2ccc(F)cc12 [Compound 16, [5-Fluoro-3-(2-methoxy-phenylsulfamoyl)-2-methyl-indol-1-yl]-acetic acid]",> 10000
8,"COc1ccc(NS(=O)(=O)c2c(C)n(CC(=O)O)c3ccc(F)cc23)cc1 [Compound 17, [5-Fluoro-3-(4-methoxy-phenylsulfamoyl)-2-methyl-indol-1-yl]-acetic acid]",> 10000
9,"Cc1c(S(=O)(=O)Nc2ccccc2)c2cc(F)ccc2n1CC(=O)O [Compound 18, (5-Fluoro-2-methyl-3-phenylsulfamoyl-indol-1-yl)-acetic acid]",> 10000
10,"Cc1c(S(=O)(=O)NCc2ccc(Cl)c(Cl)c2)c2cc(F)ccc2n1CC(=O)O [Compound 19, [3-(3,4-Dichloro-benzylsulfamoyl)-5-fluoro-2-methyl-indol-1-yl]-acetic acid]",> 10000
11,"COc1cccc(NS(=O)(=O)c2c(C)n(CC(=O)O)c3ccc(F)cc23)c1 [Compound 20, [5-Fluoro-3-(3-methoxy-phenylsulfamoyl)-2-methyl-indol-1-yl]-acetic acid]",> 10000
12,"Cc1ccc(NS(=O)(=O)c2c(C)n(CC(=O)O)c3ccc(F)cc23)cc1 [Compound 22, (5-Fluoro-2-methyl-3-p-tolylsulfamoyl-indol-1-yl)-acetic acid]",> 10000
13,"Cc1c(S(=O)(=O)NCc2ccc(Cl)cc2)c2cc(F)ccc2n1CC(=O)O [Compound 23, [3-(4-Chloro-benzylsulfamoyl)-5-fluoro-2-methyl-indol-1-yl]-acetic acid]",> 10000
14,"Cc1c(S(=O)(=O)N(C)Cc2ccccc2)c2cc(F)ccc2n1CC(=O)O [Compound 24, [3-(Benzyl-methyl-sulfamoyl)-5-fluoro-2-methyl-indol-1-yl]-acetic acid]",> 10000
15,"Cc1c(S(=O)(=O)Nc2cccnc2)c2cc(F)ccc2n1CC(=O)O [Compound 25, [5-Fluoro-2-methyl-3-(pyridin-3-ylsulfamoyl)-indol-1-yl]-acetic acid]",> 10000
